This assay relates to NCI-H460. The assay can be described thus: Cytotoxicity against human NCI-H460 cells after 48 hrs by MTT assay. Type of assay: functional, cell-based. The note with it: NCI-H460, 48 h. For orientation: Formazan colour is commonly taken as a measure of viable cells.

The structures appear in SMILES notation.

Regarding `CC[C@H](C)[C@H]1C(=O)N2CCCC[C@H]2C(=O)O[C@H](C(C)(C)C)C[C@@H](C)C[C@H](O)[C@H](C)C2=N[C@@H](/C=C(\C)C(=O)N[C@@H](Cc3ccc(OC)cc3)C(=O)N(C)[C@@H](C)C(=O)N1C)CS2`, the half-inhibitory concentration (IC50) – broadly, the concentration at which inhibition is half-maximal – was 3.4 nM.

Regarding `CC[C@H](C)[C@H]1C(=O)N2CCC[C@H]2C(=O)O[C@H](C(C)(C)C)C[C@@H](C)C[C@H](O)[C@H](C)C2=N[C@@H](/C=C(\C)C(=O)N[C@@H](Cc3ccc(OC)cc3)C(=O)N(C)[C@@H](C)C(=O)N1C)CS2` [APRATOXIN A], the 50% inhibitory concentration (IC50) is 2.5 nM.

The compound `CC[C@H](C)[C@H]1C(=O)N2CCC[C@H]2C(=O)O[C@H](C(C)(C)C)C[C@@H](C)C[C@H](O)[C@H](C)C2=N[C@@H](/C=C(\C)C(=O)N[C@@H](Cc3ccc(OC)cc3)C(=O)N(C)[C@@H](C)C(=O)N1C)C[S+]2[O-]` (stereo partly drawn) gave an IC50 of 89.9 nM.

The record behind these values is ChEMBL document CHEMBL2417533, “Apratoxin H and apratoxin A sulfoxide from the Red Sea cyanobacterium Moorea producens” (J Nat Prod, 2013).
